The record followed here is article doi:10.1101/2020.06.20.162875v1 (biorxiv, 2020).

The target of test [1] is T1, PNA (peanut lectin, peanut agglutinin) (Arachis hypogaea, UniProt P02872).
T1 sequence (P02872 24-259): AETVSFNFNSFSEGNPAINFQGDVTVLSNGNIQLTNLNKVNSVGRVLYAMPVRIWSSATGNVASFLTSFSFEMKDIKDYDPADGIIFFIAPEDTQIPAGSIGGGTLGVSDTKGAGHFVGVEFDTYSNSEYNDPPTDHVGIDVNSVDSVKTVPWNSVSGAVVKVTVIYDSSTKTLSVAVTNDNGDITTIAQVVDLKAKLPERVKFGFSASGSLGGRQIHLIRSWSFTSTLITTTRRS
In words: isothermal titration calorimetry. The format is binding. A general note: Isothermal titration calorimetry measures the heat released or taken up as one component is titrated into another.

Test [2] concerns the target T1, PNA (peanut lectin, peanut agglutinin). In words: isothermal titration calorimetry. Format: binding. The source holds these as a separate data set.

Read-outs that look alike come from different tables or passages of the source.

For the compound `OC[C@H]1O[C@@H](O[C@H]2[C@H](O)[C@@H](O)C(O)O[C@@H]2CO)[C@H](O)[C@@H](O)[C@H]1O` (some centres unmarked) [Lactose], in test [1] (298 K, independent single-site model, reference compound), the Kd was found to be 644 µM.

For the compound `CO[C@H]1O[C@H](Cn2cc(CNC(=O)CCC(=O)N[C@@H]3O[C@H](CO)[C@H](O)[C@H](O)[C@H]3O)nn2)[C@@H](O)[C@H](O)[C@H]1O` [NGS], in test [2], binding was characterised by a dissociation constant (Kd) of 1620 µM.

As to `CO[C@H]1O[C@H](Cn2cc(CSC[C@H]3O[C@@H](S[C@@H]4O[C@H](CO)[C@H](O)[C@H](O)[C@H]4O)[C@H](O)[C@@H](O)[C@@H]3O)nn2)[C@@H](O)[C@H](O)[C@H]1O` [STGD], in test [2], the Kd was 420 µM.

In test [2], `C#CCSC[C@H]1O[C@@H](S[C@@H]2O[C@H](CO)[C@H](O)[C@H](O)[C@H]2O)[C@H](O)[C@@H](O)[C@@H]1O` [STG] yielded a Kd of 552 µM.

In the case of `OC[C@H]1O[C@@H](S[C@@H]2O[C@H](CO)[C@H](O)[C@H](O)[C@H]2O)[C@H](O)[C@@H](O)[C@H]1O` [TDG], in test [1], binding was characterised by a dissociation constant (Kd) of 524 µM.

In turn, `O=C(CCC(=O)N[C@@H]1O[C@H](CO)[C@H](O)[C@H](O)[C@H]1O)NCc1cn([C@H]2CO[C@H]3[C@@H]2OC[C@@H]3n2cc(CNC(=O)CCC(=O)N[C@@H]3O[C@H](CO)[C@H](O)[C@H](O)[C@H]3O)nn2)nn1` [diNGS] displayed a dissociation constant (Kd) in test [2] of 698 µM.

Turning to `O=C(NCc1cn(C2COC3C2OCC3n2cc(CNC(=O)[C@H](O)[C@@H](O)C(=O)N[C@@H]3O[C@H](CO)[C@H](O)[C@H](O)[C@H]3O)nn2)nn1)[C@H](O)[C@@H](O)C(=O)N[C@@H]1O[C@H](CO)[C@H](O)[C@H](O)[C@H]1O` (some centres unmarked) [diNGT], binding in test [2] was characterised by a dissociation constant (Kd) of 544 µM.

For `OC[C@H]1O[C@@H](S[C@@H]2O[C@H](CSCc3cn(C[C@H]4O[C@H](O[C@H]5O[C@H](Cn6cc(CSC[C@H]7O[C@@H](S[C@@H]8O[C@H](CO)[C@H](O)[C@H](O)[C@H]8O)[C@H](O)[C@@H](O)[C@@H]7O)nn6)[C@@H](O)[C@H](O)[C@H]5O)[C@H](O)[C@@H](O)[C@@H]4O)nn3)[C@@H](O)[C@H](O)[C@H]2O)[C@H](O)[C@@H](O)[C@H]1O` [diSTGD], binding in test [2] was characterised by a dissociation constant (Kd) of 161 µM.

By Kd is commonly meant the equilibrium constant for the complex coming apart.
